The subject of series [1] is RS4-11. Briefly: Antiproliferative activity against human RS4-11 cells assessed as inhibition of cell growth. It is filed as functional, cell-based.
For series [2], the system named is MV4-11. Nature of the series: Antiproliferative activity against human MV4-11 cells assessed as inhibition of cell growth. The class given is functional, cell-based.
The subject of series [3] is KARPAS-422. Nature of the series: Antitumor activity against human KARPAS-422 cells xenografted in FOX CHASE SCID C.B.17/Icr-scid/scid Jc1 mouse assessed as inhibition of tumor growth administered orally BID for 16 days. The class given is functional. The settings on record: dose lower 40.0 mg/kg, dose upper […], route po, time 16.0 day. For orientation: Xenograft models place foreign cells or tissue in a host animal.

A short description of series [4]: Cmax in BALB/c mouse at 40 mg/kg administered as single dose. It is filed as ADME, organism-based. The settings on record: in vivo, route po.
For series [5], the system named is KARPAS-422. Nature of the series: Antitumor activity against human KARPAS-422 cells xenografted in FOX CHASE SCID C.B.17/Icr-scid/scid Jc1 mouse assessed as inhibition of tumor growth at 160 mg/kg, po BID for 16 days. It is filed as functional, organism-based. The settings on record: time 16.0 day.
Series [6] is described as follows: AUC (0 to 24 hrs) in BALB/c mouse at 40 mg/kg administered as single dose. The settings on record: in vivo, route po. It is filed as ADME, organism-based.
In series [7] the test system is Mus musculus. Briefly: In vivo inhibition of EZH1/2 in FOX CHASE SCID C.B.17/Icr-scid/scid Jc1 mouse xenografted with human KARPAS-422 cells assessed as decrease in H3K27me3 level in tumor at 40 to 160 mg/kg, po BID for 16 days and measured 1 day after cessation of drug dosing. The class given is functional, organism-based. The settings on record: dose lower 40.0 mg/kg, dose upper […], time 16.0 day.

For series [8], the system named is NCI-N87. Nature of the series: Antitumor activity against human NCI-N87 cells xenografted in female CAnN.Cg-Foxn1nu/CrlCrljFoxn1nu/Foxn1nu mouse assessed as tumor regression at 50 mg/kg, po qd for 28 days and measured for 40 days after drug dosing cessation. It is filed as functional, organism-based. The settings on record: time 28.0 day.
Series [9] concerns NCI-N87. Briefly: Antitumor activity against human NCI-N87 cells xenografted in female CAnN.Cg-Foxn1nu/CrlCrljFoxn1nu/Foxn1nu mouse assessed as tumor regression at 50 mg/kg, po qd for 28 days. It is filed as functional, organism-based. The settings on record: time 28.0 day.
For series [10], the system named is G-401. Briefly: Antitumor activity against human G-401 cells xenografted in female CAnN.Cg-Foxn1nu/CrlCrljFoxn1nu/Foxn1nu mouse assessed as suppression of tumor growth at 50 mg/kg, po qd for 12 days. It is filed as functional, organism-based. The settings on record: time 12.0 day.

Calls of active or inactive are those of the source. The calls are words filed in the database; no cut-off is given here.

What is called EC50 is the midpoint of the concentration-response curve. Consider `CCCc1cc(C)[nH]c(=O)c1CNC(=O)c1cc(-c2ccc(N3CCN(C(C)C)CC3)nc2)cc2c1cnn2C(C)C`, for which the EC50 in series [1] worked out at 1960 nM; in [2], 525 nM.
By Cmax is commonly meant the peak of the concentration-time curve. Usually AUC(0-t) stands for exposure summed from dosing to a finite time, without extrapolation to infinity. A lower AUC(0-t) goes with less exposure. Consider `CCN1CCN(c2ccc(-c3cc(C(=O)NCc4c(C)cc(C)[nH]c4=O)c(C)c4c3O[C@](C)(CN3CCOCC3)O4)cn2)CC1`, for which, in series [3], the Activity result was “Dose-Dependent Effect”. Moreover, the maximum concentration (Cmax) in series [4] was found to be 6 µM. The result in series [5] was Active. In addition, the AUC(0-t) in [6] turned out to be 45 µM·h. For the same molecule, in series [7], the inhibition entry was “Active”.
Consider `Cc1cc(C)c(CNC(=O)c2cc(Br)c3c(c2C)OC(C)(C2CCC(N(C)C)CC2)O3)c(=O)[nH]1` (stereo not given), for which the outcome in series [8] and in [10] was Active. In series [9], the result was inactive.

These data come from ChEMBL document CHEMBL5647694, “Novel orally bioavailable EZH1/2 dual inhibitors with greater antitumor efficacy than an EZH2 selective inhibitor” (Cancer Sci, 2017).
